From article PMC9719519, “Non-classical ferroptosis inhibition by a small molecule targeting PHB2” (Nature Communications, 2022)

Legend:
Assay in all cases: biochemical
Parameters in all cases: Eurofins recombinant human kinase profiling, remaining kinase activity as % of control, 10 uM ATP
Settings in all cases: ATP 10 uM; read-out: %Ctrl@10 μM
Pim-1(h) = target: T1, Pim-1(h) (Homo sapiens, UniProt P11309)
T1 construct: gene PIM1
Summary of the method: (§1)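 Recombinant human kinases, 401 in total, screened using an outsourced kinase profiling assay.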

TGFBR1(h) = TGFBR1(h) (Homo sapiens, UniProt P36897)
Summary of the method: as §1

PKAcβ(h) = target: T2, PKAcβ(h) (Homo sapiens, UniProt P22694)
T2 construct: gene PRKACB
Summary of the method: as §1

TTK(h) = TTK(h) (Homo sapiens, UniProt P33981)
Chain of TTK(h) (P33981 whole entry): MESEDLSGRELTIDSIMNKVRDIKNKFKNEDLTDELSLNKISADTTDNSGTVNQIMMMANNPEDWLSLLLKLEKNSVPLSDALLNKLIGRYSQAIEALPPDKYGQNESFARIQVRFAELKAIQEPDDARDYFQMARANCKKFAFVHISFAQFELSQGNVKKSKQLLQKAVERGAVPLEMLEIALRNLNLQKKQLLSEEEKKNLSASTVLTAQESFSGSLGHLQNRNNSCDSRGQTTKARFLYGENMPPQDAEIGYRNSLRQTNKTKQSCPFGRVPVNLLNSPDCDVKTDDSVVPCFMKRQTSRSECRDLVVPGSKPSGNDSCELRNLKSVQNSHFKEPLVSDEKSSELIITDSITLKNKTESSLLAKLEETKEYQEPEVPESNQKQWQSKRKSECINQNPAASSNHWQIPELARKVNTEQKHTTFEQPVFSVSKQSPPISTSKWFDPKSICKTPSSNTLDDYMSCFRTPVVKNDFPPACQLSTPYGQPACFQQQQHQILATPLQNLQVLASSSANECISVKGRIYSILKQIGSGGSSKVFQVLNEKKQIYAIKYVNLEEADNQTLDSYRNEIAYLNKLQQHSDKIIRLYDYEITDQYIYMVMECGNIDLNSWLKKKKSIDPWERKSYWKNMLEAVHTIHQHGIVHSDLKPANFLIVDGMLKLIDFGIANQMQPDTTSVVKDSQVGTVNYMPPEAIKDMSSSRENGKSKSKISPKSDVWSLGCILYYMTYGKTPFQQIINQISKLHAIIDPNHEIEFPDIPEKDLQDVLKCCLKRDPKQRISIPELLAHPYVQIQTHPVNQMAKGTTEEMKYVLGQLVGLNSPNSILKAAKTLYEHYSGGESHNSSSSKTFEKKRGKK
Summary of the method: as §1

PKBα(h) = target: T3, PKBα(h) (Homo sapiens, UniProt P31749)
T3 construct: gene AKT1
Summary of the method: as §1

DDR2(h) = DDR2(h) (Homo sapiens, UniProt Q16832)
Chain of DDR2(h) (Q16832 whole entry): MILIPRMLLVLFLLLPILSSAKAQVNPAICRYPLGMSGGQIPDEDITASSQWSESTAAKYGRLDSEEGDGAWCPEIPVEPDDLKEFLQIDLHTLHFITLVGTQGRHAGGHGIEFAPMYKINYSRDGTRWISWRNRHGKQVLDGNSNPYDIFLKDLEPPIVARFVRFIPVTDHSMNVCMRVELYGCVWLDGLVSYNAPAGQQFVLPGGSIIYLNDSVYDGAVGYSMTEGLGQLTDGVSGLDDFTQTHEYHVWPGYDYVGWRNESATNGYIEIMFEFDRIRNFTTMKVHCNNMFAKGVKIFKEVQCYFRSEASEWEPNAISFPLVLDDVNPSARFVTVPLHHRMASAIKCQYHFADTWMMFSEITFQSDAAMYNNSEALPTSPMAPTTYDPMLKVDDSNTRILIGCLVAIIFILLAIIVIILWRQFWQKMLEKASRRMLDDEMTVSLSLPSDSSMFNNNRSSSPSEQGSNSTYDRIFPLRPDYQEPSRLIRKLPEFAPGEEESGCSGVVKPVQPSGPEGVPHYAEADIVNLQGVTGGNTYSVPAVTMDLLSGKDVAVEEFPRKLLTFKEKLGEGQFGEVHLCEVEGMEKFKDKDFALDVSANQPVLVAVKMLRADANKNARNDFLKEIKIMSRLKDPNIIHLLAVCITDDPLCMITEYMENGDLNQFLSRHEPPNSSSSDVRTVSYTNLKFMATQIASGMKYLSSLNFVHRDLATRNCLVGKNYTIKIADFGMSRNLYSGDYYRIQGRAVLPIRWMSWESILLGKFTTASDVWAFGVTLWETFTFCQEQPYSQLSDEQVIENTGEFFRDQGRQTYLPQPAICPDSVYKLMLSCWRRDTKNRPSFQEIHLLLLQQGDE
Summary of the method: as §1

TrkA(h) = target: T4, TrkA(h) (Homo sapiens, UniProt P04629)
T4 construct: gene NTRK1
T4 sequence (P04629 whole entry): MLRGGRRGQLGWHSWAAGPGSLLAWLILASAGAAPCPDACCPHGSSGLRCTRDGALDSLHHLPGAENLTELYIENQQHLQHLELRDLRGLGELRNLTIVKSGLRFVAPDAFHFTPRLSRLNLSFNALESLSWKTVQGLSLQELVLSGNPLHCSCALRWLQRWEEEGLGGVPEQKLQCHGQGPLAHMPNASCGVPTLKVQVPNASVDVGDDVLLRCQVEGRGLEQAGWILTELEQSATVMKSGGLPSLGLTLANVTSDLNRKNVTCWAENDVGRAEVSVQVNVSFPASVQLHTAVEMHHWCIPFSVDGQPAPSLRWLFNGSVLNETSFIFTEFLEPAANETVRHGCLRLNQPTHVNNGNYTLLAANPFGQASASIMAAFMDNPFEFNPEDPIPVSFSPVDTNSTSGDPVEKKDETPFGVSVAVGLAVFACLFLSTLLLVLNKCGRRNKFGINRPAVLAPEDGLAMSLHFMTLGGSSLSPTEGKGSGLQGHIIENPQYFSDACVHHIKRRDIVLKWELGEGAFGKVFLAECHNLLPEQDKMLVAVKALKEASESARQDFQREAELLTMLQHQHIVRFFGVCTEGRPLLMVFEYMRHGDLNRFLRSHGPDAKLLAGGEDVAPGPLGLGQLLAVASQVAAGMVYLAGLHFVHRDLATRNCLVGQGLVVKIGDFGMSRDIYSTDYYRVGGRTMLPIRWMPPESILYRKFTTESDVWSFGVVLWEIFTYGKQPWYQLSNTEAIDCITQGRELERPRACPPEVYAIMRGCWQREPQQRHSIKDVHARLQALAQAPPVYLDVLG
Summary of the method: as §1

EphB4(h) = EphB4(h) (Homo sapiens, UniProt P54760)
Summary of the method: as §1

PhKγ2(h) = target: T5, PhKγ2(h) (Homo sapiens, UniProt P15735)
T5 construct: gene PHKG2
Summary of the method: as §1

cKit(D816V)(h) = target: T6, cKit(D816V)(h) (Homo sapiens, UniProt P10721, D816V)
T6 construct: gene KIT
Summary of the method: as §1

TrkB(h) = target: T7, TrkB(h) (Homo sapiens, UniProt Q16620)
T7 construct: gene NTRK2
Summary of the method: as §1

PKD2(h) = target: T8, PKD2(h) (Homo sapiens, UniProt Q9BZL6)
T8 construct: gene PRKD2
Summary of the method: as §1

CDK4/cyclinD3(h) = CDK4/cyclinD3(h) (Homo sapiens, UniProt P11802)
Summary of the method: as §1

CaMKIδ(h) = target: T9, CaMKIδ(h) (Homo sapiens, UniProt Q8IU85)
T9 construct: gene CAMK1D
T9 sequence (Q8IU85 whole entry): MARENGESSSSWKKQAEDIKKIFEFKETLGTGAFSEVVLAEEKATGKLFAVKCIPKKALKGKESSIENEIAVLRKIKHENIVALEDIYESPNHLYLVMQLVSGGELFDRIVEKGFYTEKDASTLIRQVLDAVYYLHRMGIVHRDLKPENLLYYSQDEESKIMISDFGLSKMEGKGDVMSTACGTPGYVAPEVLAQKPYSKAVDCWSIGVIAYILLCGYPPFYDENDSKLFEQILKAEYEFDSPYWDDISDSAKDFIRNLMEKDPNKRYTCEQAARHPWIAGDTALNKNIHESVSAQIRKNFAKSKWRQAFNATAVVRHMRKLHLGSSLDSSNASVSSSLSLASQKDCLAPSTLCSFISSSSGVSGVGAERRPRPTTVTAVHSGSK
Summary of the method: as §1

CK2(h) = target: T10, CK2(h) (Homo sapiens, UniProt P68400)
T10 construct: gene CSNK2A1
T10 sequence (P68400 whole entry): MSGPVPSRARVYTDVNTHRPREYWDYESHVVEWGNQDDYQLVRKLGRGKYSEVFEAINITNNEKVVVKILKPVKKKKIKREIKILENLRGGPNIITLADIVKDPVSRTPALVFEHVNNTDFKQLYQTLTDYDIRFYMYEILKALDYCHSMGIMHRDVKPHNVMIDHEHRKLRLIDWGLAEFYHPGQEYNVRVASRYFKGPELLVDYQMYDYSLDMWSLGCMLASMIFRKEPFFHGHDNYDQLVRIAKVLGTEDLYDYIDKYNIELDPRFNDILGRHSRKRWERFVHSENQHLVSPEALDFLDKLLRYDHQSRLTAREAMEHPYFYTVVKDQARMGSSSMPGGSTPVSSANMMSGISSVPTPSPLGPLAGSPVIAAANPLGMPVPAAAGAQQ
T10 sequence (P67870 whole entry partner): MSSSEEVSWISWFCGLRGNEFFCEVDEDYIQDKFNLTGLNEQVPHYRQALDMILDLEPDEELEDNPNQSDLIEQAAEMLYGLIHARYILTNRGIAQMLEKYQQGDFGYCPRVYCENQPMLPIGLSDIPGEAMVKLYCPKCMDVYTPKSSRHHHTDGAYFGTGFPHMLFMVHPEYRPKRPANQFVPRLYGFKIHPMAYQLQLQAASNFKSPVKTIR
Summary of the method: as §1

SAPK2a(h) = target: T11, SAPK2a(h) (Homo sapiens, UniProt Q16539)
T11 construct: gene MAPK14
T11 sequence (Q16539 whole entry): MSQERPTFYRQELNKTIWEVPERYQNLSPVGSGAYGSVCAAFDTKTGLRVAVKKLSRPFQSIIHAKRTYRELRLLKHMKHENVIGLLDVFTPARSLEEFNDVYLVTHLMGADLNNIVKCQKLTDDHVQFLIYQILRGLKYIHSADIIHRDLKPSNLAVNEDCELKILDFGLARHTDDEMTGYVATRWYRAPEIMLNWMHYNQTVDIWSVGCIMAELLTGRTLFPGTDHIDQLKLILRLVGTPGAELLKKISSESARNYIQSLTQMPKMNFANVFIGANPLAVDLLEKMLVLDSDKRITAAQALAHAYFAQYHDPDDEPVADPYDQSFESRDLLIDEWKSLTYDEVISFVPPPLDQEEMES
Summary of the method: as §1

CHK2(R145W)(h) = target: T12, CHK2(R145W)(h) (Homo sapiens, UniProt O96017, R145W)
T12 construct: gene CHEK2
T12 sequence (O96017 whole entry R145W): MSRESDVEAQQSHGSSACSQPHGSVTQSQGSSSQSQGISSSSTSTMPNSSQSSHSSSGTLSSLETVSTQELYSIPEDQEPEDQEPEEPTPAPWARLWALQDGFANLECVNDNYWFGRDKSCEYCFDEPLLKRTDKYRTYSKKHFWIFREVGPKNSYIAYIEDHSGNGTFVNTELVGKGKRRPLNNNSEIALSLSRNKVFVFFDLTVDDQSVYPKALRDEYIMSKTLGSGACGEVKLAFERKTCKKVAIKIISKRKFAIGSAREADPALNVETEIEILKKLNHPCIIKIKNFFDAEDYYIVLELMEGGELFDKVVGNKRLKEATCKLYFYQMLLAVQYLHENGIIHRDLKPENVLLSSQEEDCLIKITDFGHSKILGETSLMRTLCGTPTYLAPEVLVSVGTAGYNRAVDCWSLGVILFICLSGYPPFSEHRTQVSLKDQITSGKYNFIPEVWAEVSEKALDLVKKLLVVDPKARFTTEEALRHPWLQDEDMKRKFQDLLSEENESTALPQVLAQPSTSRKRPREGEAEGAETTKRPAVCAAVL
Summary of the method: as §1

CDK16/cyclinY(h) = CDK16/cyclinY(h) (Homo sapiens, UniProt Q00536)
Summary of the method: as §1

Rsk1(h) = target: T13, Rsk1(h) (Homo sapiens, UniProt Q15418)
T13 construct: gene RPS6KA1
Summary of the method: as §1

CRIK(h) = target: T14, CRIK(h) (Homo sapiens, UniProt O14578)
T14 construct: gene CIT
Summary of the method: as §1

DCAMKL2(h) = target: T15, DCAMKL2(h) (Homo sapiens, UniProt Q8N568)
T15 construct: gene DCLK2
Summary of the method: as §1

CK1δ(h) = target: T16, CK1δ(h) (Homo sapiens, UniProt P48730)
T16 construct: gene CSNK1D
T16 sequence (P48730 whole entry): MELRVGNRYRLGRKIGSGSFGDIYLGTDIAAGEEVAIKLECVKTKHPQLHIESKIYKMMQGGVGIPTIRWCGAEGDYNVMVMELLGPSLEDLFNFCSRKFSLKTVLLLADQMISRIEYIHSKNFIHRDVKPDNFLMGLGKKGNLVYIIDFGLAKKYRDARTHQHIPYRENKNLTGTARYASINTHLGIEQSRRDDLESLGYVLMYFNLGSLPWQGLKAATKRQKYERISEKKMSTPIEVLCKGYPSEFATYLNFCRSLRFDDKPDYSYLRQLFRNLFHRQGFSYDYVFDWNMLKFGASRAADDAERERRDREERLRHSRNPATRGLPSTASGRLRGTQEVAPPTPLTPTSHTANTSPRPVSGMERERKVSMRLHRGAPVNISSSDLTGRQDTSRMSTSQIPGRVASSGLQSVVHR
Summary of the method: as §1

In the case of `C1=C(c2nc(-c3cnn(C4CCNCC4)c3)cn3cc(-c4ccccc4)nc23)CCOC1` [YL-939], the remaining activity at 10 µM (Pim-1(h)) is reported as 68%, the remaining activity at 10 µM (TGFBR1(h)) is reported as 101% and the remaining activity at 10 µM (PKAcβ(h)) is reported as 94%. It also gave a remaining activity at 10 µM (TTK(h)) of 102%, a remaining activity at 10 µM (PKBα(h)) of 68% and a remaining activity at 10 µM (DDR2(h)) of 95%. The remaining activity at 10 µM (TrkA(h)) was 75%, the remaining activity at 10 µM (EphB4(h)) was 97% and the remaining activity at 10 µM (PhKγ2(h)) was 68%. The remaining activity at 10 µM (cKit(D816V)(h)) was 108%, the remaining activity at 10 µM (TrkB(h)) was 81% and the remaining activity at 10 µM (PKD2(h)) was 89%. For the same compound, the remaining activity at 10 µM (CDK4/cyclinD3(h)) was 80%, the remaining activity at 10 µM (CaMKIδ(h)) was 90% and the remaining activity at 10 µM (CK2(h)) was 97%. For the same compound, the remaining activity at 10 µM (SAPK2a(h)) was 103%, the remaining activity at 10 µM (CHK2(R145W)(h)) was 98% and the remaining activity at 10 µM (CDK16/cyclinY(h)) was 80%. The remaining activity at 10 µM (Rsk1(h)) was 94%, the remaining activity at 10 µM (CRIK(h)) was 101% and the remaining activity at 10 µM (DCAMKL2(h)) was 79%. For the same compound, the remaining activity at 10 µM (CK1δ(h)) was 111%.
